Measured values reported in patent US12440451B2, “Compositions and methods using an epigenetic inhibitor” (DANA-FARBER CANCER INSTITUTE, INC., priority 2017, dated 2025).

Assays:
[1] = system: OT-I+ CD8+ T cells; assay: in vitro CD8+ T cell activation assay with SIINFEKL-pulsed BMDCs, flow cytometry for effector markers; format: cell-based, mouse
Text: To screen for compounds that may inhibit epigenetic enzymes, an in vitro model of T cell activation by antigen-loaded antigen presenting cells (APCs) was used. CD8^+ T cells were harvested from OT-I T cell receptor transgenic mice. OT-I mice are transgenic for the mouse Tera-V2 and Torb-V5 genes, which form a T cell receptor that recognizes the SIINFEKL peptide (SEQ ID NO: 1) epitope of chicken ovalbumin presented in the context of the Kb MHC I molecule. This allows testing of T cell activation in response to addition of SIINFEKL peptide (SEQ ID NO: 1). The APCs used for T cell activation were bone marrow-derived dendritic cells (BMDCs) harvested from congenic H-2b-MHC haplotype C57BL/6 (B6) mice.
To set up the screen, BMDCs were harvested, irradiated, and seeded into 96-well tissue culture plates (5×10^4/well) in the presence of 200 nM SIINFEKL peptide (SEQ ID NO: 1) for antigen loading. OT-I^+ CD8^+ T cells were freshly isolated from peripheral lymphoid organs of OT-I mice and added to the BMDCs in 96-well plates (5×10^4/well). One hundred epigenetic inhibitor drugs from a custom library provided by Dr. David Fisher (Massachusetts General Hospital, Boston, MA) were added separately to individual wells for a final concentration of 10 μM or 1 μM. Negative (non-drug treated) wells were given an equivalent volume of DMSO vehicle.
The OT-I^+ CD8^+ T cells were cultured for 10 days at 37° C., with media changes at days 3, 5, and 7. After 10 days, T cells were collected from the 96-well plates and analyzed by flow cytometry for markers of cell viability, effector differentiation, cytokine secretion, and cytotoxicity.
For each marker assessed, a change of greater than two standard deviations from the mean of the negative control wells was deemed a significant change.
To validate the phenotypic changes observed with RGFP966 treatment during the screen, the in vitro activation assay was repeated to compare T cells treated with RGFP966 with vehicle-treated control cells. OT-I^+ CD8^+ T cells were activated with SIINFEKL-pulsed BMDCs as in Example 1 for 7 days, with media changes at days 3 and 5. T cells were then collected and analyzed by flow cytometry for markers of effector differentiation (CD25, PD-1), cytokine secretion (IFN-γ, TNF-α, IL-2), and cytotoxicity (granzyme B).
An additional study was done on the effects of RGFP966 on T cell expression of phenotypic markers of CD8^+ effector differentiation. T cells were treated with RGFP966 and vehicle using the in vitro activation assay and flow cytometry techniques described above. OT-I^+ CD8^+ T cells were activated with SIINFEKL-pulsed BMDCs (see above) for 7 days, with media changes at days 3 and 5. T cells were collected and analyzed by flow cytometry for markers of effector differentiation (CD25, PD-1), cytokine secretion (IFN-γ, TNF-α, IL-2), and cytotoxicity (granzyme B).
OT-I^+ CD8^+ T cells were activated with antigen-pulsed BMDCs as described above, and dosed with RGFP966 for different durations of time as depicted in the schematic diagram of FIG. 7A: dose duration A of RGFP966 exposure was from day 0 to day 7 of co-culture: dose duration B of RGFP966 exposure was from day 3 to day 7 of co-culture: dose duration C of RGFP966 exposure was from day 5 to day 7 of co-culture: dose duration D of RGFP966 exposure was from day 0 to day 3 of co-culture: dose duration E of RGFP966 exposure was from day 0 to day 5 of co-culture. These time windows (dose durations A-E) correspond roughly to the early (day 0 to 3), mid-(day 3 to 5), and late (day 5 to 7) phases of T cell activation described in the literature.
T cells were thoroughly washed with culture media during media changes at a transition point (i.e. drug to no drug or vice versa). T cells in samples D and E (light gray arrows) were re-suspended in conditioned media from parallel cultures of DMSO vehicle-treated T cells in order to maintain similar levels of T cell activating cytokines in the media. […]

[2] = system: OT-I+ CD8+ T cells; assay: immunoblot time course of sorted CD8+ T cells after activation; format: cell-based, mouse; conditions: 3 μM
Procedure: Analysis was first made on expression of HDAC3 and its known binding partners, global histone acetylation levels, and known regulatory transcription factors of CD8^+ T cell effector function across a time course of T cell activation in the absence or presence of the HDAC3 inhibitor RGFP966.
To do so, OT-I^+ CD8^+ T cells were activated in vitro for 7 days, as described in FIG. 1 and Example 1 above. Activated cells received either 0 μM or 3 μM of HDAC3 inhibitor RGF966. Sorted CD8^+ T cells from the in vitro co-cultures were then assessed for HDAC3 and various markers by immunoblot at 2, 22, 72, 120, and 168 hours after activation (see immunoblot of FIG. 9A). The markers assessed included: NCOR1 and NCOR2 (part of the HDAC3/NCOR complex): BCL-6, T-BET, and BLIMP-1 (markers of the BCL-6-5-bet pathway): GAPDH and LAMIN BI (protein loading controls): acetylated residues H3K9 and H3K27, and histone H3 (markers of histone H3 acetylation).

[3] = 10 μM, 7 days activation, relative to DMSO-treated cells

## Nc1cc(F)ccc1NC(=O)/C=C/c1cnn(C/C=C/c2ccccc2)c1 [RGFP966]
[1]; 10 μM compared with 1 μM or vehicle, FIG. 2J
  TNF-α expression measured in pg/mL: increased expression of the activation marker TNF-α
[1]; [3]
  CD25 expression: higher levels
  IFN-γ expression: higher levels
  IL-2 expression: higher levels
  PD-1 expression: higher levels
  TNF-α expression: higher levels
  granzyme B expression: more of the cytotoxic effector protein granzyme B
[1]; 10 μM, exposure day 0 to 3 or day 0 to 5, relative to all 7 days
  expression of CD25 and TNF-α when the drug is washed out midway: did not reduce the expression of CD25 and TNF-α
[1]; 10 μM, exposure from day 3 or day 5 to day 7
  expression of markers of T cell activation (CD25, TNF-α) when dosing starts at later time points: reduce the expression of markers of T cell activation
[1]; 10 μM, flow cytometry, FIG. 2A, vs vehicle
  expression of CD44 and CD62L: high expression of CD62L and intermediate to high expression of CD44
[1]; 10 μM, flow cytometry, FIG. 2B, vs vehicle
  CD107a positive cells: many more CD107a positive cells than the vehicle controls
[1]; 10 μM, flow cytometry, FIG. 2C, vs untreated
  TNF-α positive cells: larger number of TNF-α positive cells than the untreated T cells
[1]; 10 μM, screen of HDAC inhibitors
  effector phenotype of CD8+ T cells in the secondary screen: consistently augmented the effector phenotype
[1]; in vitro activation, titration 0, 1, 3, 5 μM
  dose sufficient to augment the effector phenotype of CD8+ T cells: 3 µM
[1]; titration 0, 1, 3, 5 μM, 7 days
  dose at which the dose-dependent augmentation of the T cell effector phenotype begins: greater than 1 μM
[1]; with increasing drug dose, titration 0, 1, 3, 5 μM
  percentage of actively proliferating cells measured by Ki-67 expression: reduction in the percentage of actively proliferating cells
[2]
  levels of BCL-6: no significant changes
  levels of BLIMP-1 (PRDM1): no significant changes
[2]; after 72 hours post-activation
  global histone acetylation at H3K9: persistently high after 72 hours
[2]; immunoblot 2-168 hours
  HDAC3 protein level: does not result in loss of HDAC3 protein
[2]; relative to control-treated cells
  expression of T-BET (TBX21): increased in the drug-treated cells relative to control-treated cells
[2]; starting at 120 hours post-activation
  NCOR2 level: almost completely absent
